Assay results published in patent publication US10940144B2, “Drug containing pyridylaminoacetic acid compound” (priority 2017, dated 2021).

Legend:
retinal blood vessels = test: Pharmacological Test 1: retinal vasodilatory action (retinal vascular diameter from fundus images) after intravitreal administration to rabbits; type: in vivo, rabbit; conditions: for Base-Corrected Retinal Vascular Diameter Change Rate (%) 1 Hour After Administration / Base-Corrected Retinal Vascular Diameter Change Rate (%) 2 Hours After Administration / Base-Corrected Retinal Vascular Diameter Change Rate (%) 6 Hours After Administration / Base-Corrected Retinal Vascular Diameter Change Rate (%) 24 Hours After Administration: 20 μL intravitreal single injection, pigmented rabbits
Procedure: In order to find a new medicinal use of omidenepag, an ester thereof, or a salt thereof, the retinal vasodilatory action in the case of administering omidenepag to rabbits was examined. Omidenepag at 4.01 mg was dissolved in dimethyl sulfoxide to a total volume of 129 μL. Of the total volume, 10 μL was added and dissolved into physiological saline, and an appropriate amount of sodium hydroxide solution was added to adjust the pH of the formulation to 6.2. Thereafter, physiological saline was further added to a total volume of 10 mL to obtain omidenepag sample 1 (containing 0.00311% (w/v) (31.1 μg/mL) of omidenepag). In addition, the base A was added to 0.1 mL of omidenepag sample 1 to a total volume of 10 mL, and omidenepag sample 2 was obtained (containing 0.0000311% (w/v) (0.311 μg/mL) of omidenepag). CP-544326 (EP2 agonist) at 5.98 mg was dissolved in dimethyl sulfoxide to a total volume of 192 μL. Of the total volume, 10 μL was added and dissolved into physiological saline, and sodium hydroxide solution was added to adjust the pH of the formulation to 6.5. Thereafter, physiological saline was further added to a total volume of 10 mL to obtain CP-544326 sample 1 (containing 0.00311% (w/v) (31.1 μg/mL) of CP-544326). In addition, the base A was added to 0.1 mL of CP-544326 sample 1 to a total volume of 10 mL, and CP-544326 sample 2 was obtained (containing 0.0000311% (w/v) (0.311 μg/mL) of CP-544326). The base A, omidenepag samples 1 and 2, and CP-544326 samples 1 and 2 as test compound solutions, each at 20 μL, were administered intravitreally (injection, single time) to examine the change in retinal vascular diameter. In addition, pigmented rabbits (strain: Dutch, sex: male, three animals per group) were used as experimental animals. 1) After holding the above experimental animals, one drop (about 0.03 mL) of a 0.4% tropicamide ophthalmic solution (trade name: Mydrin-M ophthalmic solution 0.4%) was instilled into the retinal vascular diameter measurement eye to fully dilate the pupil. Thereafter, fundus images of the measurement eyes were captured, and the retinal vascular diameters and the like immediately before administration were measured from the obtained fundus images. 2) One drop (about 0.03 mL) of a 0.4% oxybuprocaine hydrochloride ophthalmic solution (trade name: Benoxil ophthalmic solution 0.4%) was instilled into the retinal vascular diameter measurement eye of each experimental animal for local anesthesia. Thereafter, a microsyringe connected with a 30 G injection needle was used to administer 20 μL of each test compound solution into the vitreous body. 3) At 1 hour, 2 hours, 6 hours, and 24 hours after administration of each test compound solution, fundus images of the retinal vascular diameter measuring eyes were captured, and the retinal vascular diameters and the like were measured from the obtained fundus images. (a) The fundus images captured immediately before the administration, 1 hour, 2 hours, 6 hours, and 24 hours after the administration were used to measure, as the vascular diameters, (i) the vascular diameter of the retinal artery on the nose side, (ii) the vascular diameter of the retinal artery on the ear side, and (iii) the optic nerve head diameter (longitudinal diameter passing through the center of the optic nerve head). (b) The average value of (i) the vascular diameter of the retinal artery on the nose side and (ii) the vascular diameter of the retinal artery on the ear side measured from the fundus images for each time period was divided by (iii) the optic nerve head diameter to calculate the corrected retinal vascular diameter. […]

[1] = test system: optic nerve head tissue blood flow; test: Pharmacological Test 3: optic nerve head tissue blood flow (laser speckle flowgraphy) after intravitreal administration to rabbits; type: in vivo, rabbit
Procedure: In order to find anew medicinal use of omidenepag, an ester thereof, or a salt thereof, the action of increasing tissue blood flow in the optic nerve head in the case of administering omidenepag to rabbits was examined.
Omidenepag at 3.99 to 4.03 mg was dissolved in dimethyl sulfoxide to a total volume of 128 to 130 μL. Of the total volume, 10 μL was added and dissolved into physiological saline, and an appropriate amount of sodium hydroxide solution was added to adjust the pH of the formulation to 6.3 to 7.2. Thereafter, physiological saline was further added to a total volume of 10 mL to obtain omidenepag sample 3 (containing 0.00311% (w/v) (31.1 μg/mL) of omidenepag).
The base C and omidenepag sample 3 as test compound solutions, each at 20 μL, were administered intravitreally (injection, single time) to examine the change in optic nerve head tissue blood flow. In addition, pigmented rabbits (strain: Dutch, sex: male, three animals per group) were used as experimental animals. […]
3) At 1 hour and 2 hours after administration of each test compound solution, the optic nerve head tissue blood flow of the optic nerve head tissue blood flow measurement eye was measured.
(a) The ratio of the optic nerve head tissue blood flow after passage of each of the time periods of 1 hour and 2 hours after administration to the optic nerve head tissue blood flow immediately before administration (optic nerve head tissue blood flow change rate (%)) was calculated. […]
(b) For each time period after administration, the difference (base-corrected optic nerve head tissue blood flow change rate (%)) was calculated between the optic nerve head tissue blood flow change rate (%) of the group administered with the base C simultaneously carried out and the optic nerve head tissue blood flow change rate (%) of the group administered with omidenepag sample 3. […]

O=C(O)COc1cccc(CN(Cc2ccc(-n3cccn3)cc2)S(=O)(=O)c2cccnc2)c1 [CP-544326, reference compound]
Base-Corrected Retinal Vascular Diameter Change Rate (%) 1 Hour After Administration (retinal blood vessels; 0.0000311% (w/v) (0.311 μg/mL)): 14.8%
Base-Corrected Retinal Vascular Diameter Change Rate (%) 2 Hours After Administration (retinal blood vessels; 0.0000311% (w/v) (0.311 μg/mL)): 9.0%
Base-Corrected Retinal Vascular Diameter Change Rate (%) 6 Hours After Administration (retinal blood vessels; 0.0000311% (w/v) (0.311 μg/mL)): 0.8%
Base-Corrected Retinal Vascular Diameter Change Rate (%) 24 Hours After Administration (retinal blood vessels; 0.0000311% (w/v) (0.311 μg/mL)): 3.5%
Base-Corrected Retinal Vascular Diameter Change Rate (%) 1 Hour After Administration (retinal blood vessels; 0.00311% (w/v) (31.1 μg/mL)): 48.4%
Base-Corrected Retinal Vascular Diameter Change Rate (%) 2 Hours After Administration (retinal blood vessels; 0.00311% (w/v) (31.1 μg/mL)): 57.5%
Base-Corrected Retinal Vascular Diameter Change Rate (%) 6 Hours After Administration (retinal blood vessels; 0.00311% (w/v) (31.1 μg/mL)): 72.2%
Base-Corrected Retinal Vascular Diameter Change Rate (%) 24 Hours After Administration (retinal blood vessels; 0.00311% (w/v) (31.1 μg/mL)): 3.7%

O=C(O)CNc1cccc(CN(Cc2ccc(-n3cccn3)cc2)S(=O)(=O)c2cccnc2)n1 [Omidenepag, (6-{[4-(pyrazol-1-yl)benzyl](pyridin-3-ylsulfonyl)aminomethyl}pyridin-2-ylamino)acetic acid]
Base-Corrected Optic Nerve Head Tissue Blood Flow Change Rate (%) 1 Hour After Administration ([1]; 0.00311% (w/v) (31.1 μg/mL), 20 μL intravitreal single injection, pigmented rabbits, 1 hour): 343.6%
Base-Corrected Optic Nerve Head Tissue Blood Flow Change Rate (%) 2 Hours After Administration ([1]; 0.00311% (w/v) (31.1 μg/mL), 20 μL intravitreal single injection, pigmented rabbits, 2 hours): 327.8%
blood flow increasing action, optic nerve head (in words) ([1]; intravitreal administration, rabbits): significantly strong blood flow increasing action
Base-Corrected Retinal Vascular Diameter Change Rate (%) 1 Hour After Administration (retinal blood vessels; 0.0000311% (w/v) (0.311 μg/mL)): 35.8%
Base-Corrected Retinal Vascular Diameter Change Rate (%) 2 Hours After Administration (retinal blood vessels; 0.0000311% (w/v) (0.311 μg/mL)): 35.4%
Base-Corrected Retinal Vascular Diameter Change Rate (%) 6 Hours After Administration (retinal blood vessels; 0.0000311% (w/v) (0.311 μg/mL)): 22.3%
Base-Corrected Retinal Vascular Diameter Change Rate (%) 24 Hours After Administration (retinal blood vessels; 0.0000311% (w/v) (0.311 μg/mL)): 2.9%
Base-Corrected Retinal Vascular Diameter Change Rate (%) 1 Hour After Administration (retinal blood vessels; 0.00311% (w/v) (31.1 μg/mL)): 81.2%
Base-Corrected Retinal Vascular Diameter Change Rate (%) 2 Hours After Administration (retinal blood vessels; 0.00311% (w/v) (31.1 μg/mL)): 71.9%
Base-Corrected Retinal Vascular Diameter Change Rate (%) 6 Hours After Administration (retinal blood vessels; 0.00311% (w/v) (31.1 μg/mL)): 88.1%
Base-Corrected Retinal Vascular Diameter Change Rate (%) 24 Hours After Administration (retinal blood vessels; 0.00311% (w/v) (31.1 μg/mL)): 11.8%
retinal vasodilatory action compared with CP-544326 (in words) (retinal blood vessels; at the same concentration, intravitreal, rabbits): significantly stronger retinal vasodilatory action
